In ChEMBL document CHEMBL1150038, “Conformation of the CYP2D6 model substrate sparteine under physiological conditions” (Bioorg Med Chem Lett, 1993):

Test: pKa value was determined
Assay type: physicochemical

pKa: 11.4
Structure (SMILES): C1CCN2C[C@@H]3C[C@@H](CN4CCCC[C@@H]34)[C@H]2C1 [SPARTEINE]
